Experimental data taken from a melting point compilation (Tetko et al.; mined from patent text by program, amines drawn as free bases though some values may be those of a salt).

Compound	melting point
COCCC(=O)N[C@H]1CC[C@H](CCN2CCN(c3ncc(C)c4c3CCO4)CC2)CC1	164 °C
Cn1c(=O)c2c(nc(Cl)n2Cc2ccccc2C#N)n(C)c1=O	222 to 224 °C
Nc1nc2c(ncn2[C@@H]2C[C@H](O)[C@@H](O)[C@H]2O)c(=O)[nH]1 (racemic)	295 °C
COC(=O)c1ccc(NS(=O)(=O)c2sc3ccc(F)cc3c2C)c(S(C)(=O)=O)c1	202 to 204 °C
C#CCSc1ccncc1	55 to 56 °C
O=C(O)Cc1cc2c(cc1Cc1ccccc1)OCO2	116 to 117 °C
C[Si](C)(C)C#CCn1nc(-c2ccc(F)c(Br)c2)ncc1=O	103 to 105 °C
CCOC(=O)C(C1c2ccccc2C=Cc2ccccc21)[N+](=O)[O-] (stereo not given)	101 to 103 °C
CC(=O)NCC(=O)c1ccccc1	69 °C
CCCCCCCCC#Cc1ccc2sc(C=O)cc2c1	45 to 47 °C
COCCCn1c(C(=O)O)cc2c3c(c(-c4ccccc4Cl)cc21)C(=O)NC3=O	272 to 274 °C
Cc1cc(C)c(C)c(-c2cc3cnc(N)nc3nc2NC(=O)NC(C)(C)C)c1C	> 300 °C
O=[N+]([O-])c1ccc(NS(=O)(=O)c2ccccc2)cc1	137 °C
CCCCCCCCCCCC(=O)N[C@@H](Cc1ccc(O)cc1)C(=O)OC	89 °C
CSc1nnc(-c2ccc3ncn(-c4ccc(OC(F)F)cc4)c3c2)o1	202 to 203 °C
CCOC(=O)[C@@H]1Cc2ccccc2N1C(=O)CC[C@@H](NC(=O)OCc1ccccc1)C(=O)OCc1ccccc1	114 to 116 °C
COC(=O)Nc1cccc(-c2ccc3nncn3n2)c1	210 to 212 °C
CC1=CC(=O)C(O)=CC1=CC=Cc1ccccc1	164 to 165 °C
COc1cc(Nc2c(C#N)cnc3cc(-c4cccc(C=O)c4)sc23)c(Cl)cc1Cl	262 to 263 °C
O=S(=O)(c1ccccc1)n1c(-c2cccc(C(O)c3cc4ccccc4n3S(=O)(=O)c3ccccc3)c2)cc2ccccc21 (stereo not given)	81 to 83 °C
CC(=O)N1CCC(Br)(C(=O)c2ccc(F)cc2)CC1	156 to 159 °C
O=C1NC(=S)SC1=Cc1ccc2c(c1)N(CCc1ccc(F)c(F)c1)C(=O)CO2	263 to 266 °C
CSc1ccc2n1CCC2C#N (stereo not given)	58 to 58.5 °C
O=C(O)CCOCc1ccccc1	35.2 °C
O=C(O)c1cccc(CNC2CC3CC2C2CCCC32)c1 (stereo not given)	258 to 261 °C

Compound	melting point
CCOC(=O)C(NC(C)=O)(C(=O)OCC)C1=Nc2ccc(Cl)cc2C(c2ccccc2Cl)=NC1	153 to 155 °C
O=C1c2c(O)cccc2C(SCC(O)CO)c2cccc(O)c21 (stereo not given)	154 to 155 °C
CSc1ncc(Br)c(N(C)NC(=O)c2c(Cl)cccc2Cl)n1	254 to 256 °C
NCCCN(CC1COc2ncccc2O1)c1ccc(Cl)nn1 (stereo not given)	101 °C
Cc1nnc2ccc(-c3cccc(F)c3)nn12	184 to 186 °C
COc1ccc(C2=NCc3nnc(CN(C)C)n3-c3ccc(Cl)cc32)cc1	224 to 225 °C
CC1(C)CC(=O)c2c(nc(Cc3ccc(O)c(F)c3)c3[nH]c4ccccc4c23)C1	216 to 218 °C
Cc1cc(-c2cc3c(OC[C@@H](O)CN4CCC(c5ccc6ccccc6c5)CC4)cccc3o2)nn1C	155 to 157 °C
CC(=O)NC1C(Oc2nc[nH]c2C(N)=O)OC(COC(C)=O)C(OC(C)=O)C1OC(C)=O (stereo not given)	133 to 135 °C
NC(=NCC(F)(F)F)Nc1ccnc(CCCCc2nc(O)n[nH]2)n1	209 to 210 °C
CS(=O)(=O)c1cn(CC2=NCCN2)c2ccc(N)cc12	215 to 217 °C
CC1CC(=O)NN=C1c1ccc2c(c1)N(C)C(=O)C(C)O2 (stereo not given)	184 to 185 °C
COc1cc(Nc2c(C#N)cnc3cc(-c4cccc(CCN5CCOCC5)c4)c(OC)cc23)c(Cl)cc1Cl	193 to 195 °C
CCOC1=NS(=O)(=O)C(C#N)=C1OCC	147 to 148 °C
C=CCOc1cc(OC(=S)N2CCSC2)ccc1Cl	104 to 106 °C
CCCCCCCc1ccc(C(=O)CCC(=O)O)cc1	101 to 104 °C
CC(C)C[C@H](NC(=O)[C@H](Cc1c[nH]c2ccccc12)NC(=O)OC(C)(C)C)C(=O)CCl	140 to 141 °C
CCOCCNC(=O)c1cccc(-c2cccc3cc(Cc4cc(F)cc(Cl)c4)sc23)c1	79 to 80 °C
O=C1NCC(COc2cccc3c2SCCC3)O1 (stereo not given)	152 to 153 °C
O=C(O)C1=Cc2cc(C(F)(F)F)ccc2NC1C(F)(F)F (stereo not given)	150 to 156 °C
CN(C)CCOc1cc2c(Nc3cccc(Br)c3)c(C#N)cnc2cn1	138 to 139 °C
O=C(c1c[nH]c2ccc(Br)cc12)C(F)(F)F	254 °C
O=C(O)C(Sc1nc2ccc(Cl)nc2s1)c1ccc(Cl)cc1 (stereo not given)	144 to 146 °C
COC(=O)NC1CCc2ccc(Cl)cc2C1=O (stereo not given)	126 to 127 °C
CCc1cc(C(=O)c2ccccc2Cl)c(-n2cnnc2CNS(=O)(=O)c2ccc3ccccc3c2)s1	165 to 167 °C
